In brackets after ≈: the same amount, converted by molar mass. Like-named read-outs stand apart in the source and are kept apart here.
Legend:
[1] = test system: MSSA Newman; experiment: MIC test in TSB medium with MTT staining, MSSA Newman; type: cell-based, Staphylococcus aureus; conditions: Staphylococcus aureus
Description: MIC Test (Methicillin Susceptible Staphylococcus aureus (MSSA Newman))
Overnight cultures of MSSA Newman were grown up in TSB medium at 37° C. The cultures obtained were normalized with TSB to OD600=0.6 and diluted 100-fold. 1.5 μL of a dilution series of Example Compounds in DMSO (100×, in duplicate), and the diluted bacterial culture (150 μL) was added to wells of a sterile, clear 96 well plate and incubated at 37° C.

[2] = test system: S. aureus ATCC 29213; experiment: MIC test according to CLSI M7-A9, S. aureus ATCC 29213; type: cell-based; conditions: Staphylococcus aureus
Summary of the method: (§1)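 Per CLSI M7-A9, DMSO stocks diluted in cation-adjusted Mueller Hinton broth, plates incubated 24 h at 37 °C in air. MIC is the lowest concentration giving complete inhibition of visible growth, read visually and at 600 nm.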

[3] = test system: S. aureus ATCC 43300; experiment: MIC test according to CLSI M7-A9, S. aureus ATCC 43300; type: cell-based; conditions: Staphylococcus aureus
Summary of the method: as §1

[4] = test system: S. aureus Newman; experiment: MIC test according to CLSI M7-A9, S. aureus Newman; type: cell-based; conditions: Staphylococcus aureus, CLSI M7-A9, CAMHB, 24 h (Table 3), read-out: S. aureus ATCC Newman MIC
Description: MIC Test (S. aureus ATCC 29213, S. aureus ATCC 43300 and S. aureus Newman)
Susceptibility testing of S. aureus ATCC 29213, ATCC 43300 and Newman was performed according to Clinical Laboratory Standard Institute (CLSI) guidelines M7-A9. Test articles were stored at room temperature prior to use, then dissolved in filtered sterile DMSO. Stock DMSO solutions were diluted further in cation-adjusted Mueller Hinton broth (CAMHB) to provide appropriate test concentrations. Cultures of S. aureus (ATCC 29213, ATCC 43300 or Newman) were added in accordance with CLSI guidelines and plates incubated at 37° C. in air for 24 h. Endpoints were determined visually (and by spectrophotometer at 600 nm) and the minimum inhibitory concentration (MIC) defined as the lowest concentration of test articles resulting in complete inhibition of visible bacterial growth. Results are detailed in Table 2 (S. aureus ATCC 29213 and ATCC 43300) and Table 3 (S. aureus ATCC 29213, ATCC 43300 and Newman).

[5] = TSB, 37° C., MTT staining after 7 h, read-out: MSSA Newman MIC at 7 h
[6] = TSB, 37° C., MTT staining after 24 h, read-out: MSSA Newman MIC at 24 h
[7] = ATCC29213, CLSI M7-A9, CAMHB, 24 h (Table 2), read-out: S. aureus ATCC 29213 MIC at 24 h
[8] = ATCC43300, CLSI M7-A9, CAMHB, 24 h (Table 2), read-out: S. aureus ATCC 43300 MIC at 24 h
[9] = ATCC29213, CLSI M7-A9, CAMHB, 24 h (Table 3), read-out: S. aureus ATCC 29213 MIC
[10] = ATCC43300, CLSI M7-A9, CAMHB, 24 h (Table 3), read-out: S. aureus ATCC 43300 MIC

SMILES	MIC [1, 5]	MIC [1, 6]	MIC [2, 7]	MIC [3, 8]	also measured
CC(C)(C)c1ccc(-c2nc3cc(=O)[nH]n3c(=S)[nH]2)cc1 [Example 1, 2-(4-tert-butylphenyl)-4-sulfanylidene-3H,4H,6H,7H-pyrazolo[1,5-a][1,3,5]triazin-7-one]	12.5 µg/mL (≈ 41.6 µM)	12.5 µg/mL (≈ 41.6 µM)	16 µg/mL (≈ 53.3 µM)	16 µg/mL (≈ 53.3 µM)	
Cc1cc(OCCCSc2nc(-c3ccc(C(C)(C)C)cc3)nc3cc(=O)[nH]n23)ccc1Cl [Example 2, 2-(4-tert-butylphenyl)-4-{[3-(4-chloro-3-methylphenoxy)propyl]sulfanyl}-6H,7H-pyrazolo[1,5-a][1,3,5]triazin-7-one]					MIC ([1]; 7 h, read-out: MSSA Newman MIC at 7 h): > 100 µg/mL; MIC ([2]; ATCC29213, 24 h, read-out: S. aureus ATCC 29213 MIC at 24 h): > 32 µg/mL; MIC ([3]; ATCC43300, 24 h, read-out: S. aureus ATCC 43300 MIC at 24 h): > 32 µg/mL
Cc1cc(OCCCNc2nc(-c3ccc(C(C)(C)C)cc3)nc3cc(=O)[nH]n23)ccc1Cl [Example 14, 2-(4-tert-butylphenyl)-4-{[3-(4-chloro-3-methylphenoxy)propyl]amino}-6H,7H-pyrazolo[1,5-a][1,3,5]triazin-7-one]	3.3 µg/mL (≈ 7.08 µM)	3.3 µg/mL (≈ 7.08 µM)	4 µg/mL (≈ 8.58 µM)	4 µg/mL (≈ 8.58 µM)	
COc1ccc(CNc2nc(-c3ccc(C(C)(C)C)cc3)nc3cc(=O)[nH]n23)cc1 [Example 15, 2-(4-tert-butylphenyl)-4-{[(4-methoxyphenyl)methyl]amino}-6H,7H-pyrazolo[1,5-a][1,3,5]triazin-7-one]	3.1 µg/mL (≈ 7.68 µM)	12.5 µg/mL (≈ 31 µM)	8 µg/mL (≈ 19.8 µM)	8 µg/mL (≈ 19.8 µM)	
CCCCNc1nc(-c2ccc(C(C)(C)C)cc2)nc2cc(=O)[nH]n12 [Example 16, 4-(butylamino)-2-(4-tert-butylphenyl)-6H,7H-pyrazolo[1,5-a][1,3,5]triazin-7-one]	6.2 µg/mL (≈ 18.3 µM)	12.5 µg/mL (≈ 36.8 µM)			
CNc1nc(-c2ccc(C(C)(C)C)cc2)nc2cc(=O)[nH]n12 [Example 17, 2-(4-tert-butylphenyl)-4-(methylamino)-6H,7H-pyrazolo[1,5-a][1,3,5]triazin-7-one]	50 µg/mL (≈ 168 µM)				
COCCCNc1nc(-c2ccc(C(C)(C)C)cc2)nc2cc(=O)[nH]n12 [Example 27, 2-(4-tert-butylphenyl)-4-[(3-methoxypropyl)amino]-6H,7H-pyrazolo[1,5-a][1,3,5]triazin-7-one]	50 µg/mL (≈ 141 µM)	100 µg/mL (≈ 281 µM)	> 32 µg/mL	> 32 µg/mL	
CCCC(C)Nc1nc(-c2ccc(C(C)(C)C)cc2)nc2cc(=O)[nH]n12 (stereo not shown) [Example 28, 2-(4-tert-butylphenyl)-4-[(pentan-2-yl)amino]-6H,7H-pyrazolo[1,5-a][1,3,5]triazin-7-one]	3.1 µg/mL (≈ 8.77 µM)	6.2 µg/mL (≈ 17.5 µM)	16 µg/mL (≈ 45.3 µM)	16 µg/mL (≈ 45.3 µM)	
CC(C)(C)c1ccc(-c2nc(NCCCCc3ccccc3)n3[nH]c(=O)cc3n2)cc1 [Example 29, 2-(4-tert-butylphenyl)-4-[(4-phenylbutyl)amino]-6H,7H-pyrazolo[1,5-a][1,3,5]triazin-7-one]	1.6 µg/mL (≈ 3.85 µM)	3.1 µg/mL (≈ 7.46 µM)	8 µg/mL (≈ 19.3 µM)	16 µg/mL (≈ 38.5 µM)	
CC(C)(C)c1ccc(-c2nc(N)n3[nH]c(=O)cc3n2)cc1 [Example 37, 4-amino-2-(4-tert-butylphenyl)-6H,7H-pyrazolo[1,5-a][1,3,5]triazin-7-one]	25 µg/mL (≈ 88.2 µM)				
CC(C)(C)c1ccc(-c2nc(O)n3[nH]c(=O)cc3n2)cc1 [Example 38, 2-(4-tert-butylphenyl)-4-hydroxy-6H,7H-pyrazolo[1,5-a][1,3,5]triazin-7-one]	12.5 µg/mL (≈ 44 µM)	12.5 µg/mL (≈ 44 µM)			
CC(C)(O)c1ccc(-c2nc(NCCCNC3Cc4ccccc4C3)n3[nH]c(=O)cc3n2)cc1 [Example 105, 4-({3-[(2,3-dihydro-1H-inden-2-yl)amino]propyl}amino)-2-[4-(2-hydroxypropan-2-yl)phenyl]-6H,7H-pyrazolo[1,5-a][1,3,5]triazin-7-one]					MIC [2, 9]: 32 µg/mL (≈ 69.8 µM); MIC [3, 10]: 16 µg/mL (≈ 34.9 µM); MIC [4]: 32 µg/mL (≈ 69.8 µM)
CC(C)(C)c1ccc(-c2nc3c(Cc4ccccc4)c(=O)[nH]n3c(=S)[nH]2)cc1 [Example 106, 8-benzyl-2-(4-tert-butylphenyl)-4-sulfanylidene-3H,4H,6H,7H-pyrazolo[1,5-a][1,3,5]triazin-7-one]					MIC [2, 9]: 2 µg/mL (≈ 5.12 µM); MIC [3, 10]: 2 µg/mL (≈ 5.12 µM); MIC [4]: 1 µg/mL (≈ 2.56 µM)
CC(C)(C)c1ccc(-c2nc(NCCCO)n3[nH]c(=O)c(Cc4ccccc4)c3n2)cc1 [Example 107, 8-benzyl-2-(4-tert-butylphenyl)-4-[(3-hydroxypropyl)amino]-6H,7H-pyrazolo[1,5-a][1,3,5]triazin-7-one]					MIC [2, 9]: > 128 µg/mL; MIC [3, 10]: > 128 µg/mL; MIC [4]: 64 µg/mL (≈ 148 µM)

The next lines start with results.

MIC [1, 5]	MIC [1, 6]	MIC [2, 7]	MIC [3, 8]	SMILES	also measured
1.6 µg/mL (≈ 3.59 µM)	6.2 µg/mL (≈ 13.9 µM)	> 32 µg/mL	> 32 µg/mL	Cc1cccc(OCCCNc2nc(-c3ccc(C(C)(C)C)cc3)nc3cc(=O)[nH]n23)c1C [Example 30, 2-(4-tert-butylphenyl)-4-{[3-(2,3-dimethylphenoxy)propyl]amino}-6H,7H-pyrazolo[1,5-a][1,3,5]triazin-7-one]	
12.5 µg/mL (≈ 27.7 µM)	12.5 µg/mL (≈ 27.7 µM)			Cc1cc(OCCNc2nc(-c3ccc(C(C)(C)C)cc3)nc3cc(=O)[nH]n23)ccc1Cl [Example 46, 2-(4-tert-butylphenyl)-4-{[2-(4-chloro-3-methylphenoxy)ethyl]amino}-6H,7H-pyrazolo[1,5-a][1,3,5]triazin-7-one]	
3.1 µg/mL (≈ 6.67 µM)	3.1 µg/mL (≈ 6.67 µM)	2 µg/mL (≈ 4.3 µM)	4 µg/mL (≈ 8.6 µM)	Cc1cc(NCCCNc2nc(-c3ccc(C(C)(C)C)cc3)nc3cc(=O)[nH]n23)ccc1Cl [Example 47, 2-(4-tert-butylphenyl)-4-({3-[(4-chloro-3-methylphenyl)amino]propyl}amino)-6H,7H-pyrazolo[1,5-a][1,3,5]triazin-7-one]	
3.1 µg/mL (≈ 6.96 µM)	6.2 µg/mL (≈ 13.9 µM)	32 µg/mL (≈ 71.8 µM)	16 µg/mL (≈ 35.9 µM)	Cc1ccc(OCCCNc2nc(-c3ccc(C(C)(C)C)cc3)nc3cc(=O)[nH]n23)cc1C [Example 49, 2-(4-tert-butylphenyl)-4-{[3-(3,4-dimethylphenoxy)propyl]amino}-6H,7H-pyrazolo[1,5-a][1,3,5]triazin-7-one]	
12.5 µg/mL (≈ 27.5 µM)	25 µg/mL (≈ 55.1 µM)	> 64 µg/mL	> 64 µg/mL	CC(C)(C)c1ccc(-c2nc(NCCCOc3cnc(Cl)nc3)n3[nH]c(=O)cc3n2)cc1 [Example 52, 2-(4-tert-butylphenyl)-4-({3-[(2-chloropyrimidin-5-yl)oxy]propyl}amino)-6H,7H-pyrazolo[1,5-a][1,3,5]triazin-7-one]	
> 100 µg/mL	> 100 µg/mL	> 64 µg/mL	8 µg/mL (≈ 17.9 µM)	Cc1ccnc(C)c1OCCCNc1nc(-c2ccc(C(C)(C)C)cc2)nc2cc(=O)[nH]n12 [Example 53, 2-(4-tert-butylphenyl)-4-({3-[(2,4-dimethylpyridin-3-yl)oxy]propyl}amino)-6H,7H-pyrazolo[1,5-a][1,3,5]triazin-7-one]	
1.6 µg/mL (≈ 3.78 µM)	3.1 µg/mL (≈ 7.33 µM)	16 µg/mL (≈ 37.8 µM)	8 µg/mL (≈ 18.9 µM)	Cc1ccc(-c2nc(NCCCNc3ccc(Cl)c(C)c3)n3[nH]c(=O)cc3n2)cc1 [Example 68, 4-({3-[(4-chloro-3-methylphenyl)amino]propyl}amino)-2-(4-methylphenyl)-6H,7H-pyrazolo[1,5-a][1,3,5]triazin-7-one]	
> 100 µg/mL	> 100 µg/mL			CCCCNc1nc(-c2ccc(C)cc2)nc2cc(=O)[nH]n12 [Example 70, 4-(butylamino)-2-(4-methylphenyl)-6H,7H-pyrazolo[1,5-a][1,3,5]triazin-7-one]	
